Reference: PMC7821884, “BRAF inhibition protects against hearing loss in mice” (Science Advances, 2020)

Assays:
[1] = cited from earlier work
IMR-32 = assay: Tumor Cell Titer-Glo viability assay, IMR-32; format: cell-based, human; details: IMR-32, 35 μM + 15 μM cisplatin, 48 hours
Excerpt: In clinical settings, cisplatin is used to treat several tumor types, including neuroblastoma and lung carcinoma. […] Medium-alone–, cisplatin-alone–, and dabrafenib-alone–treated cells were used as controls, and viability was reported as percent survival compared to medium alone (Fig. 4E).
Three human neuroblastoma cell lines IMR-32, SH-SY5Y, and, SK-N-AS, as well as three human lung carcinoma cell lines SHP-77 small cell, H1155 non–small cell, and A549 non–small cell, were used to determine the compounds’ effect on cisplatin’s tumor-killing efficacy ([77]–[83]). Cell lines were purchased from the American Type Culture Collection (ATCC), and cell culture was conducted according to ATCC specifications. Neuroblastoma cell lines IMR-32 and SH-SY5Y are maintained in Dulbecco’s modified Eagle’s medium (DMEM) 1× with glucose (4.5 g/liter), L-glutamine, and sodium pyruvate (10-013-CV, Corning) with 10% fetal bovine serum (FBS) (35011132, Corning) and ampicillin (50 μg/ml; A5354-10ML, Sigma-Aldrich) added. The SK-N-AS cell line is maintained in DMEM 1× with D-glucose (4.5 g/liter), L-glutamine, and 25 mM Hepes (12430-054, Gibco) with 10% FBS, 0.1 mM nonessential amino acids, and ampicillin (50 μg/ml) added. A549 cells are maintained in F-12K medium with L-glutamine (30-2004, ATCC) with 10% FBS and ampicillin (50 μg/ml) added. […]

P42 FVB mice = assay: Cisplatin-induced hearing loss in adult mice (ABR, OHC counts, pERK)
Experimental: As described in Fig. 4A, baseline auditory brainstem response (ABR) thresholds for P42 FVB mice were established 1 week before experimental procedures. […] Animals were allowed 21 days after cisplatin injection to recover, and final ABR thresholds were recorded.
Ten milligrams of cisplatin (479306, Sigma-Aldrich) powder was dissolved in 10 ml of sterile saline (0.9% NaCl) at 37°C for 40 to 60 min. Cisplatin was administered to FVB mice at 30 mg/kg via intraperitoneal injection. One day before cisplatin injection, mice received 1 ml of saline by subcutaneous injection. To ameliorate dehydration after cisplatin injection, 1 ml of warm saline was injected twice per day for at least 7 days or until body weight started to recover. The cages of cisplatin-treated mice were placed on the heating pad for at least 7 days or until body weight began to recover. Fresh mush food was daily given for at least 7 days.
Compounds were dissolved in a mixture of 10% DMSO, 5% Tween 80 (P1754, Sigma-Aldrich), 40% PEG-E-300 (91462-1KG, Sigma-Aldrich), and 45% 0.9% saline.
ABR in mice was measured for left ears as described previously with minor modifications ([13], [34]). In brief, ABR waveforms were recorded in a sound booth (Industrial Acoustic Company) by using subdermal needles positioned in the skull, below the pinna, and at the base of the tail, and the responses were fed into a low-impedance Medusa digital biological amplifier system (RA4L; TDT; 20-dB gain). At each frequency, the stimulus intensity was reduced from 90 to 0 dB in 10-dB steps to determine the threshold decibel SPL when the electrical response was just above the noise floor. ABR waveforms were averaged in response to 500 tone bursts. The recorded signals were filtered by a band-pass filter from 300 Hz to 3 kHz. Pretreatment ABR recordings of adult FVB mice (aged 6 weeks) were acquired 1 week before all treatments, and posttreatment ABR measurements were recorded 21 days after cisplatin treatment or 14 days after noise exposure. ABR threshold was determined by the presence of any of three or more of the five waveform peaks. […] All thresholds and shifts were determined independently by two experimenters for each mouse. Individual ABR wave 1 amplitudes were measured as the difference between the positive peak and the following negative trough.
Cochleae from adult mice were prepared and examined as described previously ([85], [86]). All images were acquired with a confocal microscope (LSM 700 or 710, Zeiss). Samples were stained with phalloidin (A12379 or A12380, Invitrogen) or with antibodies for other markers. The following primary antibodies were used: anti–myosin VI (1:400; 25-6791; Proteus Bioscience), anti–myosin VIIa ([…];138-1-s, Developmental Studies Hybridoma Bank), anti-Tuj1 (1:250; 801201, BioLegend), anti-pERK (1:400; 9101S, Cell Signaling Technology), or anti-Ctbp2 (1:500; 612044, BD Transduction). Anti-rabbit Alexa Fluor 488 (1:400; A11034) and anti-mouse Alexa Fluor 647 (1:400; A31571) secondary antibodies were purchased from Invitrogen. ProLong gold antifade reagent with 4′,6-diamidino-2-phenylindole (P36941, Invitrogen) was used to counterstain nuclei.

## CC(C)(C)c1nc(-c2cccc(NS(=O)(=O)c3c(F)cccc3F)c2F)c(-c2ccnc(N)n2)s1 [dabrafenib]
[1]
  half-life in circulation: roughly 8 hours
IMR-32
  effect on tumor cell death when combined with cisplatin: increased tumor cell death
P42 FVB mice; 100 mg/kg 45 min pretreatment, 1 hour after cisplatin 30 mg/kg i.p.
  ERK phosphorylation in cochlear SCs after cisplatin: attenuated
P42 FVB mice; 100 mg/kg oral, cisplatin 30 mg/kg i.p.
  protection of ABR threshold at 16 kHz: nearly full protection
P42 FVB mice; 100 mg/kg oral, cisplatin 30 mg/kg, 8-, 16-, 32-kHz regions
  loss of OHCs in cochlea, combined with cisplatin: limited
P42 FVB mice; 100 mg/kg oral, no cisplatin
  OHC loss, drug alone: No OHC loss
P42 FVB mice; 3-day dabrafenib-alone treatment, weight, appearance/behavior, ototoxicity up to 21 days
  whole-body toxicity or ototoxic effects: did not observe whole-body toxicity or ototoxic effects
P42 FVB mice; cisplatin 30 mg/kg i.p., alone or combined with dabrafenib
  survival rate of mice: 50%
P42 FVB mice; inferred from effects in mice via oral delivery
  crossing of the blood-labyrinth barrier: crosses the blood-labyrinth barrier
P42 FVB mice; significant at 90-dB SPL
  ABR wave 1 amplitude at 16 kHz versus cisplatin alone: higher
